Results as given in patent US20070093554A1, “AGENT FOR IMPROVING FEELING OF COLD” (priority 2005, published 2007).

Assay: Improvement in feeling of cold evaluated by Visual Analogue Scale (VAS) method after 3 weeks ingestion of tablets
Type: in vivo, human
Settings: 6 tablets of example 1 a day for 3 weeks, normal subjects 45 to 64 years, vs tablet not containing ornithine; FIG. 2
Protocol: Before the ingestion and just after the ingestion, the improvements in feeling of cold of each subject were evaluated using Visual Analogue Scale (VAS) method.
Specifically each end of the segment has a criterion of expression. Referring to FIG. 1, each subject marked somewhere in the line, corresponding to each term of the questionnaires. The distance (mm) from the left end of the line to the marked point was measured and the difference between before and after the test was calculated. The difference by the value before the test was shown in the percentage calculated; and each average value and standard deviation for each group were calculated. […] Further, it was confirmed that there was no difference between two groups before the administration test.
Further the test was carried out under a random assignment and the comparison between the double blind parallel groups was carried out. The test of the statistically significant difference between two groups was an unpaired t-test of both side distributions using the difference between the beginning and just after the test.

NCCC[C@H](N)C(=O)O [ornithine]
coldness of hands and feet (improvement, VAS): improved remarkably
